Measurements taken from ChEMBL document CHEMBL1255299, “Killing of Neisseria gonorrhoeae, Streptococcus agalactiae (group B streptococcus), Haemophilus ducreyi, and vaginal Lactobacillus by 3-O-octyl-sn-glycerol” (2008).
Calls of active or inactive are those of the source.

Tests used:
Neisseria gonorrhoeae [1] = assay: Microbicidal activity against Neisseria gonorrhoeae ATCC 49226 after 30 mins; format: functional; conditions: ATCC 49226, 0.5 h
Pseudomonas aeruginosa [2] = assay: Antimicrobial activity against Pseudomonas aeruginosa at 4.4 mM in presence of 0.4 mM human serum albumin; format: functional, organism-based
Lactobacillus crispatus [3] = assay: Antimicrobial activity against Lactobacillus crispatus ATCC 33197 at 4.4 mM in presence of 0.05 mM human serum albumin; format: functional
Lactobacillus jensenii [4] = assay: Antimicrobial activity against Lactobacillus jensenii ATCC 25258 at 4.4 mM in presence of 0.05 mM human serum albumin; format: functional
Lactobacillus crispatus [5] = assay: Antimicrobial activity against Lactobacillus crispatus ATCC 33197 at 4.4 mM in presence of 0.1 mM human serum albumin; format: functional
Streptococcus agalactiae [6] = assay: Microbicidal activity against Streptococcus agalactiae serotype 1B after 30 mins; format: functional; conditions: 0.5 h
Neisseria gonorrhoeae [7] = assay: Antimicrobial activity against Neisseria gonorrhoeae ATCC 49226 at 4.4 mM in presence of 0.05 mM human serum albumin; format: functional, organism-based
Lactobacillus crispatus [8] = assay: Antimicrobial activity against Lactobacillus crispatus ATCC 33197 at 4.4 mM in presence of 0.3 mM human serum albumin; format: functional
Lactobacillus crispatus [9] = assay: Antimicrobial activity against Lactobacillus crispatus ATCC 20225 at 4.4 mM in presence of 0.5 mM human serum albumin; format: functional
Lactobacillus jensenii [10] = assay: Antimicrobial activity against Lactobacillus jensenii ATCC 25258 at 4.4 mM in presence of 0.6 mM human serum albumin; format: functional
Streptococcus agalactiae [11] = assay: Microbicidal activity against Streptococcus agalactiae serotype V after 30 mins; format: functional; conditions: 0.5 h
Lactobacillus crispatus [12] = assay: Antimicrobial activity against Lactobacillus crispatus ATCC 20225 at 4.4 mM in presence of 0.05 mM human serum albumin; format: functional
Streptococcus agalactiae [13] = assay: Microbicidal activity against Streptococcus agalactiae serotype IV after 30 mins; format: functional; conditions: 0.5 h
Neisseria gonorrhoeae [14] = assay: Antimicrobial activity against Neisseria gonorrhoeae ATCC 49226 at 4.4 mM in presence of 0.3 mM human serum albumin; format: functional, organism-based
Lactobacillus jensenii [15] = assay: Antimicrobial activity against Lactobacillus jensenii ATCC 25258 at 4.4 mM in presence of 0.3 mM human serum albumin; format: functional
Lactobacillus jensenii [16] = assay: Antimicrobial activity against Lactobacillus jensenii ATCC 25258 at 4.4 mM in presence of 0.7 mM human serum albumin; format: functional
Lactobacillus crispatus [17] = assay: Antimicrobial activity against Lactobacillus crispatus ATCC 33197 at 4.4 mM in presence of 0.7 mM human serum albumin; format: functional
Lactobacillus jensenii [18] = assay: Antimicrobial activity against Lactobacillus jensenii ATCC 25258 at 4.4 mM in presence of 0.2 mM human serum albumin; format: functional
Pseudomonas aeruginosa [19] = assay: Antimicrobial activity against Pseudomonas aeruginosa at 4.4 mM in presence of 0.6 mM delipidated human serum albumin; format: functional, organism-based
Pseudomonas aeruginosa [20] = assay: Antimicrobial activity against Pseudomonas aeruginosa at 4.4 mM in presence of 0.3 mM delipidated human serum albumin; format: functional, organism-based
Streptococcus agalactiae [21] = assay: Microbicidal activity against Streptococcus agalactiae serotype III after 30 mins; format: functional; conditions: 0.5 h
Pseudomonas aeruginosa [22] = assay: Antimicrobial activity against Pseudomonas aeruginosa at 4.4 mM in presence of 0.5 mM human serum albumin; format: functional, organism-based
Neisseria gonorrhoeae [23] = assay: Antimicrobial activity against Neisseria gonorrhoeae ATCC 49226 at 4.4 mM in presence of 0.7 mM human serum albumin; format: functional, organism-based
Lactobacillus jensenii [24] = assay: Antimicrobial activity against Lactobacillus jensenii ATCC 25258 at 4.4 mM in presence of 0.5 mM human serum albumin; format: functional
Pseudomonas aeruginosa [25] = assay: Antimicrobial activity against Pseudomonas aeruginosa at 4.4 mM in presence of 0.5 mM delipidated human serum albumin; format: functional, organism-based
Neisseria gonorrhoeae [26] = assay: Antimicrobial activity against Neisseria gonorrhoeae ATCC 49226 at 4.4 mM in presence of 0.4 mM human serum albumin; format: functional, organism-based
Neisseria gonorrhoeae [27] = assay: Antimicrobial activity against Neisseria gonorrhoeae ATCC 49226 at 4.4 mM in presence of 0.1 mM human serum albumin; format: functional, organism-based
Neisseria gonorrhoeae [28] = assay: Antimicrobial activity against Neisseria gonorrhoeae ATCC 49226 at 4.4 mM in presence of 0.2 mM human serum albumin; format: functional, organism-based
Pseudomonas aeruginosa [29] = assay: Antimicrobial activity against Pseudomonas aeruginosa at 4.4 mM in presence of 0.2 mM delipidated human serum albumin; format: functional, organism-based
Neisseria gonorrhoeae [30] = assay: Antimicrobial activity against Neisseria gonorrhoeae ATCC 49226 at 4.4 mM in presence of 0.6 mM human serum albumin; format: functional, organism-based
Streptococcus agalactiae [31] = assay: Microbicidal activity against Streptococcus agalactiae serotype II after 30 mins; format: functional; conditions: 0.5 h
Pseudomonas aeruginosa [32] = assay: Antimicrobial activity against Pseudomonas aeruginosa at 4.4 mM in presence of 0.6 mM human serum albumin; format: functional, organism-based
Pseudomonas aeruginosa [33] = assay: Antimicrobial activity against Pseudomonas aeruginosa at 4.4 mM in presence of 0.2 mM human serum albumin; format: functional, organism-based
Lactobacillus crispatus [34] = assay: Antimicrobial activity against Lactobacillus crispatus ATCC 20225 at 4.4 mM in presence of 0.6 mM human serum albumin; format: functional
Lactobacillus crispatus [35] = assay: Antimicrobial activity against Lactobacillus crispatus ATCC 20225 at 4.4 mM in presence of 0.2 mM human serum albumin; format: functional
Pseudomonas aeruginosa [36] = assay: Antimicrobial activity against Pseudomonas aeruginosa at 4.4 mM in presence of 0.1 mM delipidated human serum albumin; format: functional, organism-based
Lactobacillus crispatus [37] = assay: Antimicrobial activity against Lactobacillus crispatus ATCC 20225 at 4.4 mM in presence of 0.3 mM human serum albumin; format: functional
Streptococcus agalactiae [38] = assay: Microbicidal activity against Streptococcus agalactiae serotype 1A after 30 mins; format: functional; conditions: serotype IA, 0.5 h
Pseudomonas aeruginosa [39] = assay: Antimicrobial activity against Pseudomonas aeruginosa at 4.4 mM in presence of 0.1 mM human serum albumin; format: functional, organism-based
Lactobacillus crispatus [40] = assay: Antimicrobial activity against Lactobacillus crispatus ATCC 20225 at 4.4 mM in presence of 0.4 mM human serum albumin; format: functional
Lactobacillus crispatus [41] = assay: Antimicrobial activity against Lactobacillus crispatus ATCC 33197 at 4.4 mM in presence of 0.4 mM human serum albumin; format: functional
Lactobacillus crispatus [42] = assay: Antimicrobial activity against Lactobacillus crispatus ATCC 20225 at 4.4 mM in presence of 0.1 mM human serum albumin; format: functional
Lactobacillus jensenii [43] = assay: Antimicrobial activity against Lactobacillus jensenii ATCC 25258 at 4.4 mM in presence of 0.4 mM human serum albumin; format: functional
Lactobacillus crispatus [44] = assay: Antimicrobial activity against Lactobacillus crispatus ATCC 33197 at 4.4 mM in presence of 0.5 mM human serum albumin; format: functional
Lactobacillus vaginalis = assay: Microbicidal activity against Lactobacillus vaginalis after 30 mins; format: functional
Pseudomonas aeruginosa [45] = assay: Antimicrobial activity against Pseudomonas aeruginosa at 4.4 mM in presence of 0.4 mM delipidated human serum albumin; format: functional, organism-based
Lactobacillus crispatus [46] = assay: Microbicidal activity against Lactobacillus crispatus after 30 mins; format: functional; conditions: 0.5 h
Pseudomonas aeruginosa [47] = assay: Antimicrobial activity against Pseudomonas aeruginosa at 4.4 mM in presence of 0.3 mM human serum albumin; format: functional, organism-based
Lactobacillus jensenii [48] = assay: Antimicrobial activity against Lactobacillus jensenii ATCC 25258 at 4.4 mM in presence of 0.1 mM human serum albumin; format: functional
Lactobacillus jensenii [49] = assay: Microbicidal activity against Lactobacillus jensenii after 30 mins; format: functional; conditions: 0.5 h
Lactobacillus crispatus [50] = assay: Antimicrobial activity against Lactobacillus crispatus ATCC 33197 at 4.4 mM in presence of 0.2 mM human serum albumin; format: functional
Neisseria gonorrhoeae [51] = assay: Antimicrobial activity against Neisseria gonorrhoeae ATCC 49226 at 4.4 mM in presence of 0.5 mM human serum albumin; format: functional, organism-based
Lactobacillus crispatus [52] = assay: Antimicrobial activity against Lactobacillus crispatus ATCC 33197 at 4.4 mM in presence of 0.6 mM human serum albumin; format: functional
[Haemophilus] ducreyi = Microbicidal activity against Haemophilus ducreyi after 30 mins; format: functional; conditions: 0.5 h
Lactobacillus crispatus [53] = assay: Antimicrobial activity against Lactobacillus crispatus ATCC 20225 at 4.4 mM in presence of 0.7 mM human serum albumin; format: functional
Neisseria gonorrhoeae [54] = assay: Microbicidal activity against Neisseria gonorrhoeae ATCC 19424 after 30 mins; format: functional; conditions: ATCC 19424, 0.5 h
Lactobacillus iners = assay: Microbicidal activity against Lactobacillus iners after 30 mins; format: functional

CCCCCCCCOC[C@H](O)CO
active: Activity (Pseudomonas aeruginosa [2]) | Activity (Lactobacillus crispatus [3]) | Activity (Lactobacillus jensenii [4]) | Activity (Lactobacillus crispatus [5]) | Activity (Neisseria gonorrhoeae [7]) | Activity (Lactobacillus crispatus [12]) | Activity (Neisseria gonorrhoeae [14]) | Activity (Lactobacillus jensenii [15]) | Activity (Lactobacillus jensenii [18]) | Activity (Neisseria gonorrhoeae [26]) | Activity (Neisseria gonorrhoeae [27]) | Activity (Neisseria gonorrhoeae [28]) | Activity (Neisseria gonorrhoeae [30]) | Activity (Pseudomonas aeruginosa [33]) | Activity (Lactobacillus crispatus [35]) | Activity (Pseudomonas aeruginosa [36]) | Activity (Pseudomonas aeruginosa [39]) | Activity (Lactobacillus crispatus [42]) | Activity (Pseudomonas aeruginosa [47]) | Activity (Lactobacillus jensenii [48]) | Activity (Lactobacillus crispatus [50]) | Activity (Neisseria gonorrhoeae [51])
inactive: Activity (Lactobacillus crispatus [8]) | Activity (Lactobacillus crispatus [9]) | Activity (Lactobacillus jensenii [10]) | Activity (Lactobacillus jensenii [16]) | Activity (Lactobacillus crispatus [17]) | Activity (Pseudomonas aeruginosa [19]) | Activity (Pseudomonas aeruginosa [20]) | Activity (Pseudomonas aeruginosa [22]) | Activity (Neisseria gonorrhoeae [23]) | Activity (Lactobacillus jensenii [24]) | Activity (Pseudomonas aeruginosa [25]) | Activity (Pseudomonas aeruginosa [29]) | Activity (Pseudomonas aeruginosa [32]) | Activity (Lactobacillus crispatus [34]) | Activity (Lactobacillus crispatus [37]) | Activity (Lactobacillus crispatus [40]) | Activity (Lactobacillus crispatus [41]) | Activity (Lactobacillus jensenii [43]) | Activity (Lactobacillus crispatus [44]) | Activity (Pseudomonas aeruginosa [45]) | Activity (Lactobacillus crispatus [52]) | Activity (Lactobacillus crispatus [53])
1.25 mM: MCC ([Haemophilus] ducreyi)
> 10 mM: MCC (Lactobacillus vaginalis)
2.5 mM: MCC (Neisseria gonorrhoeae [1]) | MCC (Neisseria gonorrhoeae [54])
5 mM: MCC (Streptococcus agalactiae [6]) | MCC (Streptococcus agalactiae [11]) | MCC (Streptococcus agalactiae [13]) | MCC (Streptococcus agalactiae [21]) | MCC (Streptococcus agalactiae [31]) | MCC (Streptococcus agalactiae [38]) | MCC (Lactobacillus crispatus [46]) | MCC (Lactobacillus jensenii [49]) | MCC (Lactobacillus iners)

CCCCCCCCOC[C@@H](O)CO
3 mM: MCC (Lactobacillus jensenii [49])
4 mM: MCC (Lactobacillus iners)
5 mM: MCC (Lactobacillus crispatus [46])
2.5 mM: MCC (Neisseria gonorrhoeae [1]) | MCC (Neisseria gonorrhoeae [54])
